This is an account of results in paper PMC2828351 (Bioorganic & medicinal chemistry, 2009).

The target of one assay is JNK (Homo sapiens, UniProt P45983). Nature of the assay: LanthaScreen kinase activity assay. In kind it is biochemical. In general terms: TR-FRET usually uses a lanthanide donor and a delayed reading to cut background.
The target in a further assay is GST-JNK1 (Homo sapiens, UniProt P45983). Put plainly: pepJIP1 DELFIA displacement assay. It counts as binding.
The next assay deals with lethal factor (LF) (Bacillus anthracis, UniProt P15917). Nature of the assay: biochemical. In kind it is biochemical.
A further assay has as its target Furin (Homo sapiens, UniProt P09958). Put plainly: Selectivity profile: furin protease. It counts as biochemical.
The subject of the next assay is Akt kinase. Put plainly: Selectivity profile: Akt kinase. In kind it is biochemical. The settings on record: for activity against Akt kinase: no significant inhibition at 100 μM.
For the next assay, the target named is p38α (Homo sapiens, UniProt Q16539). Put plainly: Selectivity profile: p38α kinase. It counts as biochemical.
p38α, sequence (Q16539 whole entry): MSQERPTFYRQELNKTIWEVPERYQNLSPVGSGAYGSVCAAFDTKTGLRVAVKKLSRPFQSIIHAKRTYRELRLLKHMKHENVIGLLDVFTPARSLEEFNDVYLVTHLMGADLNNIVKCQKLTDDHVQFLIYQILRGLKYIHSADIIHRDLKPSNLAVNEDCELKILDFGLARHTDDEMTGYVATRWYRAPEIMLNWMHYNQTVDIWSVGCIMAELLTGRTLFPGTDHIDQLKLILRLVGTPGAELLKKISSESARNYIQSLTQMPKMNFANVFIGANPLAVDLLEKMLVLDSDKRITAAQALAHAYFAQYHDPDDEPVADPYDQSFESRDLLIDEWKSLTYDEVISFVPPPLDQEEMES

lethal factor (LF), sequence (P15917 34-809 limits assumed): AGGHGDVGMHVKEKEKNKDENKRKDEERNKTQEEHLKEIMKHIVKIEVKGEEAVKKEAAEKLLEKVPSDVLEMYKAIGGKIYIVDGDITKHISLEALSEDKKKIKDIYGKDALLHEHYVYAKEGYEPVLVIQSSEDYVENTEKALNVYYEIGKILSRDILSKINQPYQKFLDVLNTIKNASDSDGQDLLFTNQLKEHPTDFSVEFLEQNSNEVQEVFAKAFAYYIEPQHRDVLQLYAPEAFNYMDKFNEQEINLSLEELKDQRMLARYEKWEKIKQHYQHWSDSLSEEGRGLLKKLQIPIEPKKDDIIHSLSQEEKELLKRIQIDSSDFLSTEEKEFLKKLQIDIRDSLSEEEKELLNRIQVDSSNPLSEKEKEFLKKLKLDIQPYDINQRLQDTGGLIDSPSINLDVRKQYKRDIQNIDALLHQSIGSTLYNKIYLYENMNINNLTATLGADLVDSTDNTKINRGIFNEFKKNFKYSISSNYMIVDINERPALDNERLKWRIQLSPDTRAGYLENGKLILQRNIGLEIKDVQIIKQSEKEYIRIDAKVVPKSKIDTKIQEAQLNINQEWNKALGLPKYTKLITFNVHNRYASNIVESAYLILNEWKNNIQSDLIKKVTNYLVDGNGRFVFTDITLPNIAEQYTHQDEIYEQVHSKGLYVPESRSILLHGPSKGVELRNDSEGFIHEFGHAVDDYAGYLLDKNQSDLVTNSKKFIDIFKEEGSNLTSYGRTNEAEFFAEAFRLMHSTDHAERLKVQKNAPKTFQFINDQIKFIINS
GST-JNK1, sequence (P45983 whole entry): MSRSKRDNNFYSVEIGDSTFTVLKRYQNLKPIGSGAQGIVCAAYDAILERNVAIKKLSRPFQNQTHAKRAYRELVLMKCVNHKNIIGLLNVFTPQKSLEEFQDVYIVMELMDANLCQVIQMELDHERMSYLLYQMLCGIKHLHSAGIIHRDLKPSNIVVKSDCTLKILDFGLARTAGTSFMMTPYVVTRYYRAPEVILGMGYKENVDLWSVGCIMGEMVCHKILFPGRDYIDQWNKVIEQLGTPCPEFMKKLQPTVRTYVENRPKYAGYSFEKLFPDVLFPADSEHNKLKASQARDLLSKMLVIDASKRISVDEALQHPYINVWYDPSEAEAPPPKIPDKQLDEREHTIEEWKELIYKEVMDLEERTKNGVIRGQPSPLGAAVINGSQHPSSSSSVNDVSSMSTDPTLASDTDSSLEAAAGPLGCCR
JNK, sequence (P45983 whole entry): as above
Furin, sequence (P09958 108-794, species assumed): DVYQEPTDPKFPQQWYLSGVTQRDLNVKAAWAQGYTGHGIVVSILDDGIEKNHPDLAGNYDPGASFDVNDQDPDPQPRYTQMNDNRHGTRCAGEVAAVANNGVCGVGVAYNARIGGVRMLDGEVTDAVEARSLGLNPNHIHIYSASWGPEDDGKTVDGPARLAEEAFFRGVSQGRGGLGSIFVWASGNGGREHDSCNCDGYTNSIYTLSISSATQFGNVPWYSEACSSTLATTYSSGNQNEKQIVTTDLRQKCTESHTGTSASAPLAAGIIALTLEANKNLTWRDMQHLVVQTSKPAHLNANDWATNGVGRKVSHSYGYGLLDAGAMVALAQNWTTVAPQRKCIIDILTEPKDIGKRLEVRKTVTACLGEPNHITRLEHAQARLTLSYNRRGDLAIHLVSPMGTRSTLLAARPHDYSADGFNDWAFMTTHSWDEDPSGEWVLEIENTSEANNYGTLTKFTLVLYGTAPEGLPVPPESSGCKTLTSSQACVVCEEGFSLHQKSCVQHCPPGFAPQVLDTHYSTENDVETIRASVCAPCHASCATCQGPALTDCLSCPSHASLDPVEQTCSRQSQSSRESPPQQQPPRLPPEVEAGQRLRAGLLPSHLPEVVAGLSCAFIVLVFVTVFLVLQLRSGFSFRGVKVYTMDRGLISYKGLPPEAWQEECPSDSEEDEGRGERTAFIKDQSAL

For `Nc1ncnc2[nH]c(SCc3ccc(C(=O)O)cc3)nc12` [BI-87C7], the “activity in kinase assay / JNK inhibition” value at JNK was “none of these were good JNK inhibitors”. Also, the IC50 at GST-JNK1 was above 100 µM.

For `Nc1ncnc2nc(Sc3ncc([N+](=O)[O-])s3)[nH]c12` [BI-87C10], the “activity in kinase assay / JNK inhibition” value on JNK is “none of these were good JNK inhibitors”. The same compound showed an IC50 at GST-JNK1 below 1 µM.

`O=C(O)c1ccc(CSc2nc3ccccc3[nH]2)cc1` [BI-87D4] displayed an IC50 on GST-JNK1 above 100 µM.

Consider `COc1ccc2sc(Sc3ncc([N+](=O)[O-])s3)nc2c1` [BI-87D11], for which, on lethal factor (LF), the IC50 is above 100 µM and the “activity against lethal factor” value is “inactive”. For the same compound, the “activity against furin” value on Furin is “inactive”. For the same compound, in the assay on Akt kinase, the “Akt, inhibition at 100 μM” value came to 5% inhibition at 100 μM and the “activity against Akt kinase” value is “inactive”. The “times less active against p38α (vs JNK)” value on p38α is given as “at least 50 times”.

For the compound `O=[N+]([O-])c1cnc(Sc2nc3cc(Cl)ccc3s2)s1` [BI-87F2], the “activity in kinase assay / JNK inhibition” value at JNK is “inactive”.

On to `Cn1c(Sc2ncc([N+](=O)[O-])s2)nc2ccccc21` [BI-87F7], for which the “activity in kinase assay / JNK inhibition” value at JNK was “no activity”.

Turning to `O=[N+]([O-])c1cnc(Sc2nc3ccc(Cl)cc3s2)s1` [BI-87F8], the “activity in kinase assay / JNK inhibition” value at JNK is “inactive”.

On GST-JNK1, `Cn1c(Sc2nc3ccc(Cl)cc3s2)nnc1-c1cccs1` [BI-87F11] registered an IC50 above 100 µM.

Consider `Cn1c(Sc2nc3ccc(Cl)cc3s2)nnc1-c1ccc2ncccc2c1` [BI-87F12], for which, on GST-JNK1, the IC50 is above 100 µM.

Take `CCOc1ccc2nc(Sc3ncc([N+](=O)[O-])s3)sc2c1` [BI-87G2]: the “activity in kinase assay / JNK inhibition” value at JNK is “inactive”. Also, the IC50 at GST-JNK1 was above 100 µM.

With `O=[N+]([O-])c1cnc(Sc2nc3ccccc3s2)s1` [BI-87G3, 2-(5-nitrothiazol-2-ylthio)benzo[d]thiazole], on lethal factor (LF), the IC50 is above 100 µM and the “activity against lethal factor” value was “inactive”. For the same compound, on Furin, the “activity against furin” value is “inactive”. In the assay with Akt kinase, the “Akt, inhibition at 100 μM” value is given as 2% inhibition at 100 μM and the “activity against Akt kinase” value was “inactive”. Moreover, on p38α, the “times less active against p38α (vs JNK)” value is reported as “at least 50 times”.

The compound `Cn1c(Sc2nc3ccc(Cl)cc3s2)nnc1-c1ccc(Cl)cc1Cl` [BI-87G12] returned an IC50 at GST-JNK1 above 100 µM.

At GST-JNK1, `O=[N+]([O-])c1cnc(Sc2nc3cc(S(=O)(=O)O)ccc3[nH]2)s1` [BI-87H1] gave an IC50 above 100 µM.

As usually defined, the IC50 is the point on the concentration scale where inhibition reaches its midpoint. Lower therefore signals inhibition by little substance.
